# Source: US20250171431A1, “HETEROCYCLIC INHIBITORS OF IGF-1R FOR TREATMENT OF DISEASE” (HORIZON THERAPEUTICS IRELAND DAC, priority 2023, published 2025)
# Target: IGF-1R (Homo sapiens (Human), UniProt P08069)
# Test: Example B-1: IGF-1R Assay (PC3 cells, IGF1 stimulation, AlphaLISA)
# Assay type: cell-based
# Conditions: 200 ng/mL IGF1 stimulation, read-out: Biological Activity against IGF-1R IC50
# Method in brief: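 Readout is AlphaLISA signal from lysed PC3 cells, expressed as % inhibition versus vehicle and EC80 controls and banded by IC50. Before lysis, the cells were starved of serum for 2 h, exposed to 3× serially diluted compound for 2 h, and stimulated for 30 min with 200 ng/mL IGF1 (final).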
# Sequence of IGF-1R (P08069 31-1367): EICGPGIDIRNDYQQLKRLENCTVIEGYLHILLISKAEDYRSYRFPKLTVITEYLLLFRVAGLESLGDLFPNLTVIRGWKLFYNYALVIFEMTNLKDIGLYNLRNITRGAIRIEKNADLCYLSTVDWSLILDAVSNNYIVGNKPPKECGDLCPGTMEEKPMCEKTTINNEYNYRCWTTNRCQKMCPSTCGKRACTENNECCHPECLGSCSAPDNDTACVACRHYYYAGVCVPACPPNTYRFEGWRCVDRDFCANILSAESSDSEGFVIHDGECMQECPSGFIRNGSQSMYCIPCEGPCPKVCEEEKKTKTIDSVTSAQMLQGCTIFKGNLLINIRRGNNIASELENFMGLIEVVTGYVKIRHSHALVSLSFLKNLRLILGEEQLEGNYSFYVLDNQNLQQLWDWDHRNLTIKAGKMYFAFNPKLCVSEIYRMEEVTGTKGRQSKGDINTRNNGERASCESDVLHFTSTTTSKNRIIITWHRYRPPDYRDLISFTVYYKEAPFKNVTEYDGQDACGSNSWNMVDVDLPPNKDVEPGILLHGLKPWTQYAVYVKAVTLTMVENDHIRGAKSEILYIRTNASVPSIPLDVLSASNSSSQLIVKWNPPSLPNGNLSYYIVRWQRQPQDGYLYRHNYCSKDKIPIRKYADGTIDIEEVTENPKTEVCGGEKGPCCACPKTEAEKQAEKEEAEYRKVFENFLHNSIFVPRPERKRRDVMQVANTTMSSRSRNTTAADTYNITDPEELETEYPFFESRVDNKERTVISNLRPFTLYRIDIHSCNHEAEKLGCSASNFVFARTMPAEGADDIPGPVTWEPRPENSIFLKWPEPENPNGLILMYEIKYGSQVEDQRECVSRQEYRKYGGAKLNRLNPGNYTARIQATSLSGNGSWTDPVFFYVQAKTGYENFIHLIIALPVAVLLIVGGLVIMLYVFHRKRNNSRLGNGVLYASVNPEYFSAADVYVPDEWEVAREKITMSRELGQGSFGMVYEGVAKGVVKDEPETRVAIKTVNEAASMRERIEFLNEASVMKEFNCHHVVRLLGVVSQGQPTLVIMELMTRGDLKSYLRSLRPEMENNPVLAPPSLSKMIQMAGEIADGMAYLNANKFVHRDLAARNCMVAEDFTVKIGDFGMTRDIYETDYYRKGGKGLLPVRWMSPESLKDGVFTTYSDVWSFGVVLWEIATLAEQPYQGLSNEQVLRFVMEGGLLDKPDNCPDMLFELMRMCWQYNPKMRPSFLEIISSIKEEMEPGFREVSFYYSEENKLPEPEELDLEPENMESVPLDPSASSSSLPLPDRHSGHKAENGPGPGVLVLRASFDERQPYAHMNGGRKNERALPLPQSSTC
row,Compound,IC50
1,"c1ccc2ncc(Nc3ccnc(Nc4ccc(OCCCN5CCCCC5)c(OCC5CC5)c4)n3)cc2c1 [Compound 425, 2-[3-(cyclopropylmethoxy)-4-(3-piperidinopropoxy)phenylamino]-4-(3-quinolylamino)pyrimidine]",≤ 500 nM
2,"COc1cc(Nc2nccc(Nc3cnc4c(F)cccc4c3)n2)cnc1O[C@H]1C[C@@H](N(C)C)C1 [Compound 270, 4-(8-fluoro-3-quinolylamino)-2-{5-methoxy-6-[(1s,3s)-3-(dimethylamino)cyclobutoxy]-3-pyridylamino}pyrimidine]",≤ 500 nM
3,"COc1cc(Nc2ncc(F)c(Nc3cnc4ccc(Cl)cc4c3)n2)ccc1O[C@H]1C[C@@H](N(C)C)C1 [Compound 210, N4-(6-chloroquinolin-3-yl)-N2-(4-((1s,3s)-3-(dimethylamino)cyclobutoxy)-3-methoxyphenyl)-5-fluoropyrimidine-2,4-diamine]",≤ 500 nM
4,"COc1cc(Nc2nccc(Nc3cc4ccc(F)cc4[nH]c3=O)n2)ccc1O[C@H]1C[C@@H](N(C)C)C1 [Compound 122, 7-fluoro-3-(2-{3-methoxy-4-[(1s,3s)-3-(dimethylamino)cyclobutoxy]phenyl-amino}-4-pyrimidinylamino)-1,2-dihydro-2-quinolinone]",≤ 500 nM
5,"COc1cc(Nc2nccc(Nc3cnc4c(c3)C3CCC4C3)n2)ccc1O[C@H]1C[C@@H](N(C)C)C1 (stereo partly drawn) [Compound 321, 4-{3-azatricyclo[6.2.1.02,7]undeca-2(7),3,5-trien-5-ylamino}-2-{3-methoxy-4-[(1s,3s)-3-(dimethylamino)cyclobutoxy]phenylamino}pyrimidine]",≤ 500 nM
6,"COc1cc(Nc2nccc(Nc3cc(C)c4ccccc4c3)n2)ccc1OCCCN1CCCCC1 [Compound 454, 2-[3-methoxy-4-(3-piperidinopropoxy)phenylamino]-4-(4-methyl-2-naphthylamino) pyrimidine]",≤ 500 nM
7,"COc1cc(Nc2nccc(Nc3cnc4cc(F)c(F)cc4c3)n2)cnc1OC1CCNCC1 [Compound 89, N4-(6,7-difluoroquinolin-3-yl)-N2-(5-methoxy-6-(piperidin-4-yloxy)pyridin-3-yl)pyrimidine-2,4-diamine]",500 to 2000 nM
8,"COc1cc(Nc2nccc(Nc3cc4cccc(F)c4[nH]c3=O)n2)cnc1N1CCNCC1 [Compound 235, 8-fluoro-3-{2-[5-methoxy-6-(1-piperazinyl)-3-pyridylamino]-4-pyrimidinylamino}-1,2-dihydro-2-quinolinone]",≤ 500 nM
9,"COc1cc(Nc2nccc(Nc3cnc4cc(C)ccc4c3)n2)ccc1O[C@H]1C[C@H](N(C)C)C1 [Compound 336, 2-{3-methoxy-4-[(1r,3r)-3-(dimethylamino)cyclobutoxy]phenylamino}-4-(7-methyl-3-quinolylamino)pyrimidine]",≤ 500 nM
10,"Fc1ccc2cc(Nc3ccnc(Nc4ccc(OCCCN5CCOCC5)cc4)n3)cnc2c1F [Compound 403, 4-(7,8-difluoro-3-quinolylamino)-2-[p-(3-morpholinopropoxy)phenylamino]pyrimidine]",2000 to 10000 nM
11,"COc1cc(Nc2nccc(Nc3cnc4c(c3)OCCO4)n2)ccc1OCCCN1CCCCC1 [Compound 201, 4-(2,3-dihydro-1,4-dioxa-5-aza-7-naphthylamino)-2-[3-methoxy-4-(3-piperidinopropoxy)phenylamino]pyrimidine]",≤ 500 nM
12,"COc1cc(Nc2nccc(Nc3cc4cccc(F)c4[nH]c3=O)n2)cnc1N1CCN(C)C(C)(C)C1 [Compound 229, 3-{2-[6-(3,3-dimethyl-4-methyl-1-piperazinyl)-5-methoxy-3-pyridylamino]-4-pyrimidinylamino}-8-fluoro-1,2-dihydro-2-quinolinone]",≤ 500 nM
13,"COc1cc(Nc2nccc(Nc3cnc4c(c3)CCCC43CCCC3)n2)ccc1OCCCN1CCCCC1 [Compound 370, 4-(6′,7′-dihydro-5′H-spiro[cyclopentane-1,8′-quinolin]-3′-ylamino)-2-[3-methoxy-4-(3-piperidinopropoxy)phenylamino] pyrimidine]",≤ 500 nM
14,"COc1cc(Nc2nccc(Nc3cc4ccc(F)cc4[nH]c3=O)n2)cnc1O[C@H]1C[C@@H](N(C)C)C1 [Compound 244, 7-fluoro-3-(2-{5-methoxy-6-[(1s,3s)-3-(dimethylamino)cyclobutoxy]-3-pyridylamino}-4-pyrimidinylamino)-1,2-dihydro-2-quinolinone]",≤ 500 nM
15,"COc1cc(Nc2nccc(Nc3cnc4ccc(S(C)(=O)=O)cc4c3)n2)ccc1O[C@H]1C[C@H](N(C)C)C1 [Compound 329, 4-(6-mesyl-3-quinolylamino)-2-{3-methoxy-4-[(1r,3r)-3-(dimethylamino)cyclobutoxy]phenylamino}pyrimidine]",≤ 500 nM
16,"COc1cc(Nc2nccc(Nc3cnc4cc(F)c(F)cc4c3)n2)cnc1O[C@H]1C[C@@H](N(C)C)C1 [Compound 289, 4-(6,7-difluoro-3-quinolylamino)-2-{5-methoxy-6-[(1s,3s)-3-(dimethylamino)cyclobutoxy]-3-pyridylamino}pyrimidine]",500 to 2000 nM
17,"CC1(C)CCc2cc(Nc3ccnc(Nc4ccc(OCCCN5CCOCC5)cc4)n3)cnc2C1 [Compound 64, 4-(7,7-dimethyl-5,6,7,8-tetrahydro-3-quinolylamino)-2-[p-(3-morpholinopropoxy)phenylamino] pyrimidine]",≤ 500 nM

row,Compound,IC50
1,"COc1cc(Nc2nccc(Nc3cnc4c(c3)CC(F)(F)CC4)n2)ccc1O[C@H]1C[C@H](N(C)C)C1 [Compound 81, 4-(6,6-difluoro-5,6,7,8-tetrahydro-3-quinolylamino)-2-{3-methoxy-4-[(1r,3r)-3-(dimethylamino)cyclobutoxy]phenylamino}pyrimidine]",≤ 500 nM
2,"COc1cc(Nc2nccc(Nc3cnc4ccccc4c3)n2)cnc1O[C@H]1C[C@@H](N(C)C)C1 [Compound 132, N2-(6-((1s,3s)-3-(dimethylamino)cyclobutoxy)-5-methoxypyridin-3-yl)-N4-(quinolin-3-yl)pyrimidine-2,4-diamine]",≤ 500 nM
3,"COc1cc(Nc2nccc(Nc3cnc4c(c3)COCC4)n2)ccc1OCCCN1CCCCC1 [Compound 53, 4-(7,8-dihydro-5H-6-oxa-1-azanaphth-3-ylamino)-2-[3-methoxy-4-(3-piperidinopropoxy)phenylamino] pyrimidine]",≤ 500 nM
4,"COc1ccc2cc(Nc3ccnc(Nc4ccc(OCCCN5CCOCC5)cc4)n3)cnc2c1 [Compound 406, 4-(7-methoxy-3-quinolylamino)-2-[p-(3-morpholinopropoxy)phenylamino]pyrimidine]",2000 to 10000 nM
5,COc1cc(Nc2nccc(Nc3cnc4ccccc4c3)n2)ccc1O[C@H]1C[C@H](N2CCS(=O)(=O)CC2)C1 [Compound 24],≤ 500 nM
6,"COc1cc(Nc2nccc(Nc3cc4cccc(F)c4[nH]c3=O)n2)cnc1N1CCN(C)CC1 [Compound 197, 8-fluoro-3-{2-[5-methoxy-6-(4-methyl-1-piperazinyl)-3-pyridylamino]-4-pyrimidinylamino}-1,2-dihydro-2-quinolinone]",≤ 500 nM
7,"COc1cc(N2CCN(C)CC2)ncc1Nc1nccc(Nc2cnc3cc(F)c(F)cc3c2)n1 [Compound 473, 4-(6,7-difluoro-3-quinolylamino)-2-[4-methoxy-6-(4-methy1-1-piperazinyl)-3-pyridylamino]pyrimidine]",≤ 500 nM
8,"COc1cc(Nc2nccc(Nc3cnc4ccccc4c3)n2)ccc1OC1CN(C)C1 [Compound 37, 2-[3-methoxy-4-(1-methyl-3-azetidinyloxy)phenylamino]-4-(3-quinolylamino)pyrimidine]",≤ 500 nM
9,"COc1cc(Nc2nccc(Nc3cnc4ccc(Cl)cc4c3)n2)ccc1O[C@H]1C[C@H](N2CCOCC2)C1 [Compound 361, 4-(6-chloro-3-quinolylamino)-2-{3-methoxy-4-[(1r,3r)-3-morpholinocyclobutoxy]phenylamino}pyrimidine]",≤ 500 nM
10,"COc1cc(Nc2nccc(Nc3cc4ccc(Cl)cc4[nH]c3=O)n2)ccc1O[C@H]1C[C@H](N(C)C)C1 [Compound 110, 7-chloro-3-(2-{3-methoxy-4-[(1r,3r)-3-(dimethylamino)cyclobutoxy]phenyl-amino}-4-pyrimidinylamino)-1,2-dihydro-2-quinolinone]",≤ 500 nM
11,"COc1cc(Nc2nccc(Nc3cnc4cc[nH]c4c3)n2)ccc1O[C@H]1C[C@@H](N(C)C)C1 [Compound 299, 4-(1H-1,4-diazainden-6-ylamino)-2-{3-methoxy-4-[(1s,3s)-3-(dimethylamino)cyclobutoxy]phenylamino}pyrimidine]",500 to 2000 nM
12,"COc1cc(Nc2nccc(Nc3ccc4ccc(Cl)nc4n3)n2)ccc1O[C@H]1C[C@@H](N(C)C)C1 [Compound 168, N4-(7-chloro-1,8-naphthyridin-2-yl)-N2-(4-((1s,3s)-3-(dimethylamino)cyclobutoxy)-3-methoxyphenyl)pyrimidine-2,4-diamine]",≤ 500 nM
13,"COc1cc(Nc2nccc(Nc3cnc4c(c3)CCCC4C(C)(C)C)n2)ccc1OCCCN1CCCCC1 (stereo not drawn) [Compound 74, 4-[8-(tert-butyl)-5,6,7,8-tetrahydro-3-quinolylamino]-2-[3-methoxy-4-(3-piperidinopropoxy)phenylamino] pyrimidine]",≤ 500 nM
14,"COc1cc(Nc2nccc(Nc3cnc4cc(Cl)ccc4c3)n2)ccc1O[C@H]1C[C@H](N(C)C)C1 [Compound 324, 4-(7-chloro-3-quinolylamino)-2-{3-methoxy-4-[(1r,3r)-3-(dimethylamino)cyclobutoxy]phenylamino}pyrimidine]",≤ 500 nM
15,"COc1ccc2cc(Nc3ccnc(Nc4ccc(O[C@H]5C[C@H](N6CCOCC6)C5)cc4)n3)cnc2c1 [Compound 356, 4-(7-methoxy-3-quinolylamino)-2-{p-[(1r,3r)-3-morpholinocyclobutoxy]phenylamino}pyrimidine]",500 to 2000 nM
16,"CN(C)[C@H]1C[C@@H](Oc2ccc(Nc3nccc(Nc4cnc5ccccc5c4)n3)cc2)C1 [Compound 367, 4-(3-quinolylamino)-2-{p-[(1s,3s)-3-(dimethylamino)cyclobutoxy]phenylamino}pyrimidine]",≤ 500 nM
